Target: human Nav1.7 (Homo sapiens (Human), UniProt Q15858)
Assay: FLIPR sodium dye assay (CoroNa Green) for sodium channel blocking activity in recombinant Nav1.7/HEK293 cells
Assay type: cell-based

human Nav1.7, sequence (Q15858 with tags, fused parts or gaps limits assumed): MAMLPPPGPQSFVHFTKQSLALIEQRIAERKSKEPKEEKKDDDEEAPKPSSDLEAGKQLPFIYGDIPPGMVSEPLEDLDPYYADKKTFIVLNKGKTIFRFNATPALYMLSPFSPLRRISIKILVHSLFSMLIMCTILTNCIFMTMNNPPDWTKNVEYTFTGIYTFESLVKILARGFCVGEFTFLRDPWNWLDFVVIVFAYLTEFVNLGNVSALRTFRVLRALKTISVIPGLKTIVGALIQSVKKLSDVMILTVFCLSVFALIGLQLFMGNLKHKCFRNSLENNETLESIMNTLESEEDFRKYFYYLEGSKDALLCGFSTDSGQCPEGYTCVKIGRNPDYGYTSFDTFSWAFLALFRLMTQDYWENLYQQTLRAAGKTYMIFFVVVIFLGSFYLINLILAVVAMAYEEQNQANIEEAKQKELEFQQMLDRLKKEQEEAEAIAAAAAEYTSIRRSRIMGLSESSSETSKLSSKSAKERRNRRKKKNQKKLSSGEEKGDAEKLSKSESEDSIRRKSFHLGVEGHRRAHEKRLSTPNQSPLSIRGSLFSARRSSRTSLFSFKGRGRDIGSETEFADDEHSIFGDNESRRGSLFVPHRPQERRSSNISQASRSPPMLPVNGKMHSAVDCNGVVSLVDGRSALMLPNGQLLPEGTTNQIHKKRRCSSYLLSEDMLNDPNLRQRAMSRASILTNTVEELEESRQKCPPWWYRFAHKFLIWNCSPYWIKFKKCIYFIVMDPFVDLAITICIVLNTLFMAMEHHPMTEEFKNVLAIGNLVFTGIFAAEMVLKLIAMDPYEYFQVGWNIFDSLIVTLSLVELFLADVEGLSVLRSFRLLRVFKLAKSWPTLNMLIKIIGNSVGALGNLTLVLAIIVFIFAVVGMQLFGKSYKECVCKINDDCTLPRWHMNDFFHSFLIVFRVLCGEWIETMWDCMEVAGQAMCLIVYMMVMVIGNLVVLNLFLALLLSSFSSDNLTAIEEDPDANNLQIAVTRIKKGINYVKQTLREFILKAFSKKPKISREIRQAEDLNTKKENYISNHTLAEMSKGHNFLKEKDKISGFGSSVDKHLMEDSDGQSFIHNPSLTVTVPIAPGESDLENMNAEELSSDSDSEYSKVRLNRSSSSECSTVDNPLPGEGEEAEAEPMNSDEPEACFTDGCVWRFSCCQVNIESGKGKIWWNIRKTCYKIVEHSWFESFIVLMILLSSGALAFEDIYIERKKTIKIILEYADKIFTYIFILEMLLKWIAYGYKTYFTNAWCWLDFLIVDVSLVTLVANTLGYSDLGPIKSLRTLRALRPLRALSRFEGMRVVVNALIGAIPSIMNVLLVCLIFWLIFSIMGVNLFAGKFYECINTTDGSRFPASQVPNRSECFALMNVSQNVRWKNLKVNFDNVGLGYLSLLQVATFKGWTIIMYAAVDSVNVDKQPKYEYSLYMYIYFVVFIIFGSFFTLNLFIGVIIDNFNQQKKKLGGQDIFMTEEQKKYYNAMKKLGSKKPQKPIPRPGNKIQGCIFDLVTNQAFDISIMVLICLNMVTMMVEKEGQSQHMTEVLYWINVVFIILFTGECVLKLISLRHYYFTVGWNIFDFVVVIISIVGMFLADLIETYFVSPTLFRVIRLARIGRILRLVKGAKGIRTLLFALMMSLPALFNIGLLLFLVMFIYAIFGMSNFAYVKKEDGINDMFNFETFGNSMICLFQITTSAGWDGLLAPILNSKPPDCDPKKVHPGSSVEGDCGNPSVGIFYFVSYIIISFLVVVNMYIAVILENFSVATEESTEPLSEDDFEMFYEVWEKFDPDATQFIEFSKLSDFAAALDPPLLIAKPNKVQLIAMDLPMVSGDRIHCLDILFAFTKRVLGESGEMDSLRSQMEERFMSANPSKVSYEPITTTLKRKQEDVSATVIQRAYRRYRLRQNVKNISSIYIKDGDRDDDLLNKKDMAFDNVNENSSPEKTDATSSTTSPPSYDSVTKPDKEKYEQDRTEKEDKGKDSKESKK

SMILES	IC50
NC(=O)c1nc(N[C@H]2CCNC2=O)nc(N2CC(Oc3ccc(C(F)(F)F)cn3)C2)n1 [Compound 14, (S)-4-((2-oxopyrrolidin-3-yl)amino)-6-(3-((5-(trifluoromethyl)pyridin-2-yl)oxy)azetidin-1-yl)-1,3,5-triazine-2-carboxamide]	> 20 µM
NC(=O)c1nc(N)nc(-c2ccc(Oc3ccc(C(F)(F)F)cn3)cc2)n1 [Compound 13, 4-amino-6-(4-((5-(trifluoromethyl)pyridin-2-yl)oxy)phenyl)-1,3,5-triazine-2-carboxamide]	> 20 µM
NC(=O)c1nc(N[C@H]2CCNC2=O)nc(-c2ccc(Oc3ccc(OC(F)(F)F)cc3)cc2)n1 [Compound 2, (S)-4-((2-oxopyrrolidin-3-yl)amino)-6-(4-(4-(trifluoromethoxy)phenoxy)phenyl)-1,3,5-triazine-2-carboxamide]	0.326 ± 0.116 µM
CCN(c1nc(C(N)=O)nc(-c2ccc(Oc3ccc(OC(F)(F)F)cc3)cc2)n1)C(C)C [Compound 4, 4-(ethyl(isopropyl)amino)-6-(4-(4-(trifluoromethoxy)phenoxy)phenyl)-1,3,5-triazine-2-carboxamide]	> 20 µM
CCN(c1nc(C(N)=O)nc(-c2ccc(Oc3ccc(C(F)(F)F)cn3)cc2)n1)C(C)C [Compound 5, 4-(ethyl(isopropyl)amino)-6-(4-((5-(trifluoromethyl)pyridin-2-yl)oxy)phenyl)-1,3,5-triazine-2-carboxamide]	0.645 ± 0.14 µM
N#Cc1nc(-c2ccc(Oc3ccc(C(F)(F)F)cn3)cc2)nc(N2CCOCC2)n1 [Compound 8, 4-morpholino-6-(4-((5-(trifluoromethyl)pyridin-2-yl)oxy)phenyl)-1,3,5-triazine-2-carbonitrile]	8.09 ± 0.959 µM
NC(=O)c1nc(-c2ccc(Oc3ccc(C(F)(F)F)cn3)cc2)nc(N2CCOCC2)n1 [Compound 10, 4-morpholino-6-(4-((5-(trifluoromethyl)pyridin-2-yl)oxy)phenyl)-1,3,5-triazine-2-carboxamide]	0.353 ± 0.1 µM
NC(=O)c1nc(NCCO)nc(-c2ccc(Oc3ccc(C(F)(F)F)cn3)cc2)n1 [Compound 12, 4-((2-hydroxyethyl)amino)-6-(4-((5-(trifluoromethyl)pyridin-2-yl)oxy)phenyl)-1,3,5-triazine-2-carboxamide]	0.243 ± 0.125 µM
NC(=O)c1nc(N)nc(N2CC(Oc3ccc(C(F)(F)F)cn3)C2)n1 [Compound 11, 4-amino-6-(3-((5-(trifluoromethyl)pyridin-2-yl)oxy)azetidin-1-yl)-1,3,5-triazine-2-carboxamide]	> 20 µM
N#Cc1nc(N[C@H]2CCNC2=O)nc(-c2ccc(Oc3ccc(OC(F)(F)F)cc3)cc2)n1 [Compound 1, (S)-4-((2-oxopyrrolidin-3-yl)amino)-6-(4-(4-(trifluoromethoxy)phenoxy)phenyl)-1,3,5-triazine-2-carbonitrile]	2.25 ± 0.37 µM
NC(=O)c1nc(-c2ccc(Oc3ccc(OC(F)(F)F)cc3)cc2)nc(N2CCOCC2)n1 [Compound 9, 4-morpholino-6-(4-(4-(trifluoromethoxy)phenoxy)phenyl)-1,3,5-triazine-2-carboxamide]	0.596 ± 0.102 µM
